What was measured:
Details in all cases: 48 h
SEM cells [1] = experiment: cell viability relative to DMSO control; higher = less cytotoxic
In short: (§1)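 In 1536-well plates, 5 μl of leukemia cells were seeded per well: 500 cells/well for NOMO1 or SEM and 1000 cells/well for P12-Ichikawa. Each line had first been adapted for at least four passages in each medium. Library compounds in DMSO were pin-dosed at 11 threefold concentrations between 47 μM and 0.79 nM, and CellTiter-Glo One luminescence was read after 48 h at 37°C. Viability is a per-plate percentage relative to DMSO wells, with cell-free wells as background.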

NOMO1 [2] = experiment: AUC of viability dose-response curve (% viability x log10 dose units); higher = less sensitive
In short: (§2)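 Over 48 h at 37°C, leukemia cells in 1536-well plates (500 or 1000 cells/well), adapted to each medium, received library compounds in DMSO at 11 threefold doses from 47 μM to 0.79 nM. CellTiter-Glo One luminescence, normalised per plate to DMSO and cell-free wells, was fitted by a four-parameter log-logistic function of log10 dose. The area under the curve was then integrated by trapezoidal rule, after scaling curves above full viability and removing those that failed quality control.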

P12-Ichikawa [3] = experiment: as above
In short: as §2

SEM cells [4] = experiment: as above
In short: as §2

NOMO1 [5] = experiment: cell viability relative to DMSO control; higher = less cytotoxic
In short: as §1

P12-Ichikawa [6] = experiment: as above
In short: as §1

OCCN1C[C@H](O)[C@@H](O)[C@H](O)[C@H]1CO
SEM cells [1], HPLM + 10% dialyzed FBS
Details	cell viability [%]
0.000781 µM	93.6
0.00234 µM	116
0.00702 µM	129
0.0211 µM	118
0.0632 µM	86.6
0.19 µM	114
0.569 µM	138
1.71 µM	125
5.12 µM	134
15.4 µM	136
46.1 µM	123

AUC of viability dose-response curve
Details	NOMO1 [2]	P12-Ichikawa [3]	SEM cells [4]
HPLM + 10% dialyzed FBS	296	365	432
RPMI 5 mM glucose + 10% FBS	266	371	417
RPMI 5 mM glucose + 10% dialyzed FBS	296	377	384

O=C(Nc1cccc(Br)c1)c1cccc([S+](=O)([O-])N2CCCCCC2)c1
AUC of viability dose-response curve
Details	NOMO1 [2]	P12-Ichikawa [3]	SEM cells [4]
HPLM + 10% dialyzed FBS	462	450	447
RPMI 5 mM glucose + 10% FBS	460	457	436
RPMI 5 mM glucose + 10% dialyzed FBS	470	464	441

CC[C@H]1OC(=O)[C@H](C)[C@@H](O[C@H]2C[C@@](C)(OC)[C@@H](O)[C@H](C)O2)[C@H](C)[C@@H](O[C@@H]2O[C@H](C)C[C@H](N(C)C)[C@H]2O)[C@](C)(O)C[C@@H](C)CN(C)[C@H](C)[C@@H](O)[C@]1(C)O
SEM cells [1], HPLM + 10% dialyzed FBS
Details	cell viability [%]
0.000781 µM	85.1
0.00234 µM	122
0.00702 µM	124
0.0211 µM	129
0.0632 µM	133
0.19 µM	127
0.569 µM	149
1.71 µM	119
5.12 µM	129
15.4 µM	133
46.1 µM	96.6

AUC of viability dose-response curve
Details	NOMO1 [2]	P12-Ichikawa [3]	SEM cells [4]
HPLM + 10% dialyzed FBS	458	458	458
RPMI 5 mM glucose + 10% FBS	419	452	458
RPMI 5 mM glucose + 10% dialyzed FBS	446	459	467

NCCc1c[nH]cn1
AUC of viability dose-response curve
Details	NOMO1 [2]	P12-Ichikawa [3]	SEM cells [4]
HPLM + 10% dialyzed FBS	466	456	473
RPMI 5 mM glucose + 10% FBS	460	449	437
RPMI 5 mM glucose + 10% dialyzed FBS	444	461	432

FC(F)(F)c1ccc(CNc2ccc(Cc3c[nH]c4ncc(Cl)cc34)cn2)cn1
AUC of viability dose-response curve
Details	HPLM + 10% dialyzed FBS	RPMI 5 mM glucose + 10% FBS	RPMI 5 mM glucose + 10% dialyzed FBS
P12-Ichikawa [3]	268	367	370
SEM cells [4]	317	245	314

CCC(C1CCC(C)C(O1)C(C)C(O)C(C)C(=O)C(CC)C2OC\3(O[C@]4(CC[C@@](C)(O4)C5CC[C@@](O)(CC)C(C)O5)C(O)\C=C3)C(C)CC2C)C([O-])=O (stereo partly specified)
cell viability [%]
Details	NOMO1 [5]	P12-Ichikawa [6]	SEM cells [1]
HPLM + 10% dialyzed FBS, 0.000781 µM	111	103	105
HPLM + 10% dialyzed FBS, 0.00234 µM	121	112	13.3
HPLM + 10% dialyzed FBS, 0.00702 µM	101	109	124
HPLM + 10% dialyzed FBS, 0.0211 µM	91.2	101	103
HPLM + 10% dialyzed FBS, 0.0632 µM	119	106	113
HPLM + 10% dialyzed FBS, 0.19 µM	109	106	118
HPLM + 10% dialyzed FBS, 0.569 µM	117	105	116
HPLM + 10% dialyzed FBS, 1.71 µM	68.6	82.8	77.4
HPLM + 10% dialyzed FBS, 5.12 µM	38	74.5	29.6
HPLM + 10% dialyzed FBS, 15.4 µM	27.3	74.8	22.9
HPLM + 10% dialyzed FBS, 46.1 µM	26.4	64.5	21.3
RPMI 5 mM glucose + 10% FBS, 0.000781 µM	90.5	85	107
RPMI 5 mM glucose + 10% FBS, 0.00234 µM	34.1	111	101
RPMI 5 mM glucose + 10% FBS, 0.00702 µM	99.9	101	110
RPMI 5 mM glucose + 10% FBS, 0.0211 µM	90.6	111	107
RPMI 5 mM glucose + 10% FBS, 0.0632 µM	114	104	110
RPMI 5 mM glucose + 10% FBS, 0.19 µM	110	109	109
RPMI 5 mM glucose + 10% FBS, 0.569 µM	97.1	100	98.3
RPMI 5 mM glucose + 10% FBS, 1.71 µM	67.6	73.7	55
RPMI 5 mM glucose + 10% FBS, 5.12 µM	19.7	60.9	25.5
RPMI 5 mM glucose + 10% FBS, 15.4 µM	16.6	56.1	14.3
RPMI 5 mM glucose + 10% FBS, 46.1 µM	15.3	42.5	10.4
RPMI 5 mM glucose + 10% dialyzed FBS, 0.000781 µM	96.9	96.4	58.1
RPMI 5 mM glucose + 10% dialyzed FBS, 0.00234 µM	78.6	107	15
RPMI 5 mM glucose + 10% dialyzed FBS, 0.00702 µM	132	109	97.9
RPMI 5 mM glucose + 10% dialyzed FBS, 0.0211 µM	153	113	97.9
RPMI 5 mM glucose + 10% dialyzed FBS, 0.0632 µM	119	112	113
RPMI 5 mM glucose + 10% dialyzed FBS, 0.19 µM	75.1	108	97.8
RPMI 5 mM glucose + 10% dialyzed FBS, 0.569 µM	102	86.2	89.1
RPMI 5 mM glucose + 10% dialyzed FBS, 1.71 µM	36.2	68.8	50.2
RPMI 5 mM glucose + 10% dialyzed FBS, 5.12 µM	15.2	55.7	26.9
RPMI 5 mM glucose + 10% dialyzed FBS, 15.4 µM	13.5	44.9	22.5
RPMI 5 mM glucose + 10% dialyzed FBS, 46.1 µM	11	41.1	14.3

P12-Ichikawa [3]
Details	AUC of viability dose-response curve
HPLM + 10% dialyzed FBS	426
RPMI 5 mM glucose + 10% FBS	403
RPMI 5 mM glucose + 10% dialyzed FBS	382

Reference: the supplement of paper PMC11451515
